Converted amounts (≈) assume the structure as drawn.
Assays:
Assay type in all cases: functional
[1] = tested on: Mycobacterium tuberculosis; experiment: AntiMycobacterium tuberculosis activity 2-week Alamar Blue 7H9/ADC/Tw MIC (uM); conditions: 336 h
[2] = tested on: Mycobacterium tuberculosis; experiment: AntiMycobacterium tuberculosis activity Non-Replicating form: Average MIC90 (uM)
[3] = tested on: Mycobacterium tuberculosis; experiment: (§1) AntiMycobacterium tuberculosis activity day 10 in 7H9/2.5mM butyrate/pH6/0.1mM nitrite MIC90 (uM); conditions: 240 h
[4] = tested on: Mycobacterium tuberculosis; experiment: AntiMycobacterium tuberculosis activity 1-week 7H9/glucose/BSA/Tx MIC (uM); conditions: 168 h
[5] = tested on: Mycobacterium tuberculosis; experiment: AntiMycobacterium tuberculosis activity 1-week 7H9/ADC/Tw MIC (uM); conditions: 168 h
[6] = tested on: Mycobacterium tuberculosis; experiment: AntiMycobacterium tuberculosis activity day 21 MIC99 in 7H9/2.5mM butyrate/pH6/0.1mM nitrite MIC99 (uM); conditions: 504 h
[7] = tested on: Mycobacterium tuberculosis; experiment: AntiMycobacterium tuberculosis activity 2-week 7H9/DPPC/cholesterol/BSA/Tx MIC (uM); conditions: 336 h
[8] = tested on: Mycobacterium tuberculosis; experiment: AntiMycobacterium tuberculosis activity 1-week 7H9/DPPC/cholesterol/BSA/Tx MIC (uM); conditions: 168 h
[9] = tested on: Mycobacterium tuberculosis; experiment: AntiMycobacterium tuberculosis activity 2-week Alamar Blue 7H9/cholesterol/BSA/Tx MIC (uM); conditions: 336 h
[10] = tested on: Mycobacterium tuberculosis; experiment: AntiMycobacterium tuberculosis activity 2-week GAST/Fe MIC (uM); conditions: 336 h
[11] = tested on: Mycobacterium tuberculosis; experiment: AntiMycobacterium tuberculosis activity Replicating form: Average MIC90 (uM)
[12] = tested on: Mycobacterium tuberculosis; experiment: as §1; conditions: 240 h; remark: listed apart in the source
[13] = tested on: Mycobacterium tuberculosis; experiment: AntiMycobacterium tuberculosis activity day 21 in 7H9/2.5mM butyrate/pH6/0.1mM nitrite MIC90 (uM); conditions: 504 h
[14] = tested on: Mycobacterium tuberculosis; experiment: AntiMycobacterium tuberculosis activity 1-week GAST/Fe MIC (uM); conditions: 168 h
[15] = tested on: Mycobacterium tuberculosis; experiment: AntiMycobacterium tuberculosis activity 1-week 7H9/cholesterol/BSA/Tx MIC (uM); conditions: 168 h
HepG2 = experiment: HepG2 CC50 (uM) Cytotoxicity; conditions: Homo sapiens
[16] = tested on: Mycobacterium tuberculosis; experiment: AntiMycobacterium tuberculosis activity 2-week 7H9/ADC/Tw MIC (uM); conditions: 336 h
[17] = tested on: Mycobacterium tuberculosis; experiment: AntiMycobacterium tuberculosis activity 2-week 7H9/glucose/BSA/Tx MIC (uM); conditions: 336 h

Row | Structure (SMILES) | MIC [1] [µM] | MIC90 [2] [µM] | MIC90 [3] [µM] | MIC [4] [µM] | MIC [5] [µM] | MIC [6] [µM] | MIC [7] [µM] | MIC [8] [µM] | MIC [9] [µM] | MIC [10] [µM] | MIC90 [11] [µM] | MIC90 [12] [µM] | MIC90 [13] [µM] | MIC [14] [µM] | MIC [15] [µM] | CC50 (HepG2) [µM] | MIC [16] [µM] | MIC [17] [µM]
1 | c1coc(CNc2nc(N3CCCCC3)nc3ccccc23)c1 | 25 (≈ 7.71 µg/mL) | 27.8 (≈ 8.58 µg/mL) | 12.5 (≈ 3.85 µg/mL) | 6.25 (≈ 1.93 µg/mL) | 19 (≈ 5.86 µg/mL) | 25 (≈ 7.71 µg/mL) | 9.4 (≈ 2.9 µg/mL) | 6.25 (≈ 1.93 µg/mL) | 6.25 (≈ 1.93 µg/mL) | 9.4 (≈ 2.9 µg/mL) | 8.41 (≈ 2.59 µg/mL) | 12.5 (≈ 3.85 µg/mL) | 25 (≈ 7.71 µg/mL) | 9.4 (≈ 2.9 µg/mL) | 4.7 (≈ 1.45 µg/mL) | 18.6 | 25 (≈ 7.71 µg/mL) | 12.5 (≈ 3.85 µg/mL)
2 | CCCn1c(CNc2ccccc2O)nc2ccccc21 | 6.25 (≈ 1.76 µg/mL) | 7.04 (≈ 1.98 µg/mL) | 3.12 (≈ 0.878 µg/mL) | 12.5 (≈ 3.52 µg/mL) | 9.4 (≈ 2.64 µg/mL) | > 50 | 6.25 (≈ 1.76 µg/mL) | 6.25 (≈ 1.76 µg/mL) | 6.25 (≈ 1.76 µg/mL) | 1.56 (≈ 0.439 µg/mL) | 12.7 (≈ 3.57 µg/mL) | > 50 | 6.25 (≈ 1.76 µg/mL) | 1.56 (≈ 0.439 µg/mL) | 6.25 (≈ 1.76 µg/mL) | 84.1 | 9.4 (≈ 2.64 µg/mL) | 12.5 (≈ 3.52 µg/mL)
3 | CC(Oc1ccccc1)C(=O)Nc1nc(-c2ccccn2)cs1 (configuration not stated) | 12.5 (≈ 4.07 µg/mL) | 41.7 (≈ 13.6 µg/mL) | 12.5 (≈ 4.07 µg/mL) | 12.5 (≈ 4.07 µg/mL) | 12.5 (≈ 4.07 µg/mL) | 6.25 (≈ 2.03 µg/mL) | > 50 | 25 (≈ 8.13 µg/mL) | 19 (≈ 6.18 µg/mL) | 2.3 (≈ 0.748 µg/mL) | 91.3 (≈ 29.7 µg/mL) | 6.25 (≈ 2.03 µg/mL) | 12.5 (≈ 4.07 µg/mL) | 1.56 (≈ 0.508 µg/mL) | 9.4 (≈ 3.06 µg/mL) | 29.3 | 12.5 (≈ 4.07 µg/mL) | 50 (≈ 16.3 µg/mL)
4 | O=C(NCc1ccoc1)N1CCN(Cc2ccc3c(c2)OCO3)CC1 | 6.25 (≈ 2.15 µg/mL) | 57.1 (≈ 19.6 µg/mL) | 6.25 (≈ 2.15 µg/mL) | 37 (≈ 12.7 µg/mL) | > 50 | 25 (≈ 8.58 µg/mL) | 25 (≈ 8.58 µg/mL) | 4.7 (≈ 1.61 µg/mL) | 2.3 (≈ 0.79 µg/mL) | 0.78 (≈ 0.268 µg/mL) | > 100 | 6.25 (≈ 2.15 µg/mL) | 25 (≈ 8.58 µg/mL) | 0.39 (≈ 0.134 µg/mL) | 3.13 (≈ 1.07 µg/mL) | > 100 | > 50 | > 50
5 | Cc1cc(OCC(=O)NCc2ccccc2)c2cc(Br)ccc2n1 | 4.7 (≈ 1.81 µg/mL) | 21.2 (≈ 8.17 µg/mL) | 1.5 (≈ 0.578 µg/mL) | 37 (≈ 14.3 µg/mL) | 50 (≈ 19.3 µg/mL) | > 50 | 25 (≈ 9.63 µg/mL) | 3.13 (≈ 1.21 µg/mL) | 1.56 (≈ 0.601 µg/mL) | 0.39 (≈ 0.15 µg/mL) | > 100 | 25 (≈ 9.63 µg/mL) | 6.25 (≈ 2.41 µg/mL) | 0.2 (≈ 0.0771 µg/mL) | 2.3 (≈ 0.886 µg/mL) | 31 | > 50 | 50 (≈ 19.3 µg/mL)
6 | COc1cccc(-c2nc3c(N4CCCC4)cccc3n2CC2CCCN2)n1 (configuration not stated) | 6.25 (≈ 2.36 µg/mL) | 80.6 (≈ 30.4 µg/mL) | 12.5 (≈ 4.72 µg/mL) | 25 (≈ 9.44 µg/mL) | 9.4 (≈ 3.55 µg/mL) | > 50 | 50 (≈ 18.9 µg/mL) | 25 (≈ 9.44 µg/mL) | 9.4 (≈ 3.55 µg/mL) | 4.7 (≈ 1.77 µg/mL) | 38.5 (≈ 14.5 µg/mL) | > 50 | 25 (≈ 9.44 µg/mL) | 4.7 (≈ 1.77 µg/mL) | 37 (≈ 14 µg/mL) | 25 | 9.4 (≈ 3.55 µg/mL) | 37 (≈ 14 µg/mL)
7 | CCC(Sc1nc2ccccc2o1)C(=O)Nc1nccs1 (configuration not stated) | 9.4 (≈ 3 µg/mL) | 1.38 (≈ 0.441 µg/mL) | 6.25 (≈ 2 µg/mL) | 9.4 (≈ 3 µg/mL) | 9.4 (≈ 3 µg/mL) | 6.25 (≈ 2 µg/mL) | 12.5 (≈ 3.99 µg/mL) | 9.4 (≈ 3 µg/mL) | 12.5 (≈ 3.99 µg/mL) | 37 (≈ 11.8 µg/mL) | 3.08 (≈ 0.984 µg/mL) | 12.5 (≈ 3.99 µg/mL) | 6.25 (≈ 2 µg/mL) | 37 (≈ 11.8 µg/mL) | 12.5 (≈ 3.99 µg/mL) | 13 | 9.4 (≈ 3 µg/mL) | 12.5 (≈ 3.99 µg/mL)
8 | COc1ccc(Nc2ccccc2NC(=O)c2ccc(O)nc2)cc1 | 12.5 (≈ 4.19 µg/mL) | 17.8 (≈ 5.97 µg/mL) | 1.5 (≈ 0.503 µg/mL) | 37 (≈ 12.4 µg/mL) | 37 (≈ 12.4 µg/mL) | > 50 | 2.3 (≈ 0.771 µg/mL) | 0.6 (≈ 0.201 µg/mL) | 0.6 (≈ 0.201 µg/mL) | < 0.02 | 28.6 (≈ 9.59 µg/mL) | > 50 | 6.25 (≈ 2.1 µg/mL) | < 0.02 | 0.3 (≈ 0.101 µg/mL) | 42.5 | 37 (≈ 12.4 µg/mL) | 37 (≈ 12.4 µg/mL)
9 | Nc1ncnc2c1ncn2[C@@H]1O[C@H](COS(=O)(=O)NC(=O)c2ccccc2O)[C@@H](O)[C@H]1O | 9.4 (≈ 4.38 µg/mL) | > 100 | > 50 | > 50 | > 50 | > 50 | > 50 | > 50 | > 50 | 0.6 (≈ 0.28 µg/mL) | > 100 | > 50 | > 50 | 0.3 (≈ 0.14 µg/mL) | > 50 | > 100 | > 50 | > 50
